“Also recorded” adds a separate entry of the source.

In experiment [1] the test system is DU-145, human prostate cancer cell line. In words: Intracellular calcium measurement (fluo-3, confocal microscopy). The experiment is classed as cell-based. To be noted: for continuous increase of [Ca2+]i by KCl treatment: pretreatment with antagonist before KCl, FIG. 2B-D. The procedure:
DU-145, human prostate cancer cell line, was pretreated with a regulator of intracellular calcium (Ca^2+) signaling second messenger, and the intracellular calcium signaling pattern thereof was analyzed. The concentration of intracellular calcium was measured by the following method: A cell suspension pretreated with a fluo-3 (molecular probe, USA) was titrated in a confocal dish (SPL, Seoul, Korea) coated with poly-L-lysine (Sigma-Aldrich, USA) and reacted for 20 minutes in a CO2 incubator to attach the cells. Then, the intracellular calcium amount was measured by a confocal microscopy system of Nikon Co, using the method of Tsien et al. (Tsien et al., Nature 295, 68-71 (1982)), and the results are illustrated in FIG. 2.

The test system is the same in experiment [2]. Nature of the experiment: Western blotting of prostasome (exosomal) marker proteins in prostasomes from culture supernatant. The experiment is classed as cell-based. On the procedure: Specifically, the prostate cancer cell line DU-145 were cultured in DMEM (GIBCO/Invitrogen, USA) supplemented with 10% exosome-free FBS (GIBCO/Invitrogen, USA) and 1% antibiotics-antimycotic (GIBCO/Invitrogen, USA) under the conditions of 37° C. and 5% CO2. The cell culture was collected and centrifuged at 3,000 rpm for 30 minutes to separate the supernatant. The supernatant was centrifuged at 15,000×g for 20 minutes using a Beckman's high-speed centrifuge, and the supernatant was separated again. The supernatant was centrifuged at 105,000×g for 2 hours using a high-speed centrifuge to obtain a precipitate. The collected precipitate was resuspended in the same buffer. The first eluted fraction was collected using sephadex G-200 (Sigma, USA), centrifuged again, and then suspended for use. 20 μg of protein was inactivated in 5× sample buffer at 100° C. for 5 minutes and then electrophoresed on a 10% SDS polyacrylamide gel. The separated proteins were transferred to a PVDF membrane and blocked in 2% BSA for 90 minutes. The respective HSP70, β-actin, Rab5 and LAMP1 antibodies were placed overnight at 4° C. in a ratio of 1:1,000 and then washed three times for 10 minutes with tris-buffered saline Tween-20 (TBST) buffer. The secondary antibodies were diluted at a ratio of 1:1,000 and allowed to adhere at room temperature for 2 hours. The membranes washed three times for 15 minutes with TBST buffer were treated with ECL (Bio-Rad, USA), and the amount of the protein expression was measured with LAS-500 (GE Healthcare Life Science, USA). DU-145, prostate cancer cell line, was treated with KCl, which induces cell membrane depolarization. Western blotting was performed to identify changes in prostasome-related protein expression. Specifically, the cells were cultured with KCl at various concentrations (0, 5, 10, 25, 50 and 100 mM) for 1 hour, and prostasomes were prepared from the culture supernatant by the method described in Experimental Example 1 and subjected to Western blotting. Further, cells were cultured with 25 mM KCl for various times (0, 10, 30, 60, 120 and 180 minutes) and subjected to Western blotting. The results are illustrated in FIG. 1. Furthermore, DU-145, human prostate cancer cell line was pretreated with a regulator of intracellular calcium (Ca^2+) signaling second messenger to analyze the change in the prostasome-related protein expression. Specifically, DU-145 cells were treated with various antagonists (regulator of intracellular calcium signaling second messenger) such as 100 μg/ml heparin (selective IP3 receptor inhibitor), 50 μM 8-Br-cADPR (antagonist of cADPR) and 1 μM NED-19 (antagonist of NAADP) together with 25 mM KCl. Prostasomes were prepared from the culture supernatant by the method described in Experimental Example 1, and Western blotting was performed. All antagonists were preincubated for 30 minutes before KCl treatment, and the cells were cultured for an additional 1 hour after KCl treatment. The results are illustrated in FIG. 3. Capsaicin (Sigma Aldrich, Mo., USA), which induces intracellular calcium (Ca^2+) signaling, was used to confirm the change in prostasome-related protein expression according to capsaicin treatment in DU-145, human prostate cancer cell line by Western blot. Specifically, the cells were cultured with capsaicin at various concentrations (0, 12.5, 25, 50, 100 and 200 μM) for 3 hours, and prostasomes were prepared from the culture supernatant by the method described in Example 2 and subjected to Western blotting, The cells were also cultured with 50 μM capsaicin for various times (0, 10, 30, 60, […], 120 and 180 minutes) and subjected to Western blotting. The results are illustrated in FIG. 4.

In a further experiment the test system is mouse oocytes. Nature of the experiment: In vitro fertilization test. The experiment is classed as cell-based. The note with it: sperms fused with prostasomes obtained with or without pretreatment by regulator, reacted with oocytes, 36 hours; FIG. 6. The procedure: In order to perform the in vitro fertilization test, the method of Ren et al. (Ren et al., Nature 413, 603-609 (2001)) was modified and used. A 10 to 12-week-old female mouse was injected with pregnant mare serum gonadotropin (PMSG) (5 IU; Sigma-Aldrich). After 48 hours, the mouse was injected with human chorionic gonadotropin (hCG) (5 IU; Sigma-Aldrich). After 14 hours of the last injection, uterine tubes were removed and perfused with IVF medium (Medicult, USA), and flown oocytes were collected using a low magnification microscope.
The collected oocytes were resuspended in IVF medium and were cultured with prostasomes which were obtained in the presence or absence of the regulator of the intracellular calcium signaling second messenger, causing fertilization reaction. The heated mineral oil was overlaid on top of the medium to block the outside air. After 36 hours of the culture, the total number of oocytes contained in the culture medium was counted under a microscope, and cells above the two-cell stage were counted. The fertilization rate was calculated using the following formula. The case that the sperms that had undergone the same fusion process without prostasome treatment were cultured with about 15 oocytes was referred to as 100%. The results are illustrated in FIG. 6. […]

For another experiment, the system named is C57BL/6 mice. In words: In vivo fertilization test in mice (number of pups). Details: species or system mouse. To be noted: male C57BL/6 mice, 50 mg/kg intraperitoneally twice daily for 2 weeks, then mating 1:1 for 48 hours; FIG. 7. On the procedure: The number of pups was measured in the mouse breeding process to confirm the increase of reproductive ability due to the promotion of the prostasome secretion (Nambu University's animal test approval number #201604), 7-week-old male C57BL/6 mice were randomly assigned into three groups and adapted to the breeding conditions. The groups were divided into the normal untreated group, the solvent-[…] group, and the capsaicin-treated group. Capsaicin was prepared at a high concentration (100-fold) in DMSO, then diluted in phosphate buffered saline (PBS, pH 7.2), and used as an injection. In the solvent-treated group, PBS (200 μl) diluted with the same volume of DMSO was administered. Twice daily capsaicin (50 mg/kg) and placebo were intraperitoneally injected into each experimental group for 2 weeks. Then, each mouse was caged with a female c57BL/6 mouse adapted for the same breeding condition, mating them at a ratio of 1:1 for 48 hours. The mating started at 6 pm, and the mating success was evaluated by confirming that the plaque was formed at the vaginal entrance at 9:00 am, but it was maintained for 48 hours considering the possibility of premature dropping. Then, only the female was separated from each cage, and the separate breeding was performed for each group. After the gestation period (about 21 days), the number of pups was counted. […]

The subject of the next experiment is mouse sperms. In words: Sperm motility test (CASA) of sperms fused with prostasomes from PPECs. The experiment is classed as cell-based. The note with it: sperms fused with PPECs-derived prostasomes (with or without pretreatment of the prostate cells), vs no fusion; FIG. 5. On the procedure: The prostasomes of the mouse were obtained by incising the mouse abdominal cavity and obtaining the prostate under the bladder through microsurgery (Drost et al, 2016, Nat Protoc. 11(2): 347-358). Later, the effluent from the prostate gland was collected from the prostate and diluted using BWW (Bigger, Whitten, arid Whittingham) medium [10 mM Hepes, 20 mM sodium lactate, 5 mM glucose, 0.25 mM sodium pyruvate, penicillin G (80 mg/L), streptomycin sulfate (50 mg/L), 95 mM NaCl, 4.8 mM KCl, 1.3 mM CaCl2, 1.2 mM KH2PO4, and 1.2 mM MgSO4 in 25 mM NaHCO3 buffer, pH 7.4]). The supernatant was used to collect prostasomes by the same method as described above.
To collect mouse sperms which are not fused with prostasomes, the tail epididymis of a male mouse was surgically removed, and blood and adipose tissue were removed using ophthalmic scissors. The epididymis was punctured with a 30 gauge sterilized needle and pinched by tweezers to release a large number of sperms. […]
Specifically, the isolated sperms were diluted with a weak alkaline buffer with 0.32 M sucrose or binding buffer 150 mM NaCl, 1 mM CaCl2, 1 mM MgCl2, 5 mM glucose with 2 mM Hepes (pH 8.0)/20 mM MES (pH 5.0, binding buffer). […] The sperm motility rate was measured using a computer assisted sperm analysis (CASA) device (IVOS, Hamilton Thorne Biosciences, USA). […]

For the compound `N=c1c2nc(Br)n3c2ncn1C1OC(COP(=O)(O)OP(=O)(O)OCC2OC3C(O)C2O)C(O)C1O` (centres unmarked) [8-br-cADPR, 8-Br-cADPR], the “continuous increase of [Ca2+]i by KCl treatment” value (from here on “continuous increase of [Ca2+]i”) in experiment [1] was “suppressed”.
Regarding `COc1ccc([C@H]2N[C@H](C(=O)O)Cc3c2[nH]c2ccccc32)cc1CN1CCN(c2ccccc2F)CC1` [Ned-19], the “HSP70 expression (KCl-induced) with antagonist” value in experiment [2] (100 μg/ml heparin, 50 μM 8-Br-cADPR or 1 μM NED-19 preincubated 30 minutes, then 25 mM KCl 1 hour, FIG. 3) is “did not show the inhibitory effect”. Moreover, in experiment [1], the “continuous increase of [Ca2+]i” value is listed as “not suppressed”.
Turning to `C1CCC[C@H]2CCCN3CC[C@@H](CCCCCC[C@@H]4CCCN5CC[C@@H](CC1)O[C@@H]45)O[C@@H]23` [Xestospongin C], in experiment [1], the “continuous increase of [Ca2+]i” value was “suppressed”. Moreover, the “fertility (fertilization rate)” value in the experiment with mouse oocytes is recorded as “reduced to be similar to that of the negative control”.
As for `[Cl-].[K+]` [KCl], the HSP70 expression result in experiment [2] (25 mM KCl alone without an antagonist, 1 hour, FIG. 3) is “increased”. Also, the “protein expression of HSP70 and LAMP1” value in experiment [2] (25 mM KCl for 0, 10, 30, 60, 120 and 180 minutes, FIG. 1B) is on record as “increased in a time-dependent manner”. In experiment [2] (KCl 0, 5, 10, 25, 50 and 100 mM for 1 hour, FIG. 1A), the “protein expression of HSP70, Rab5 and LAMP1 (exosomal markers)” value is “increased in a concentration-dependent manner”. In experiment [1] (120 μM KCl, FIG. 2A), the “intracellular calcium ([Ca2+])” value is “rapidly increased”.
Regarding `COc1cc(CNC(=O)CCCC/C=C/C(C)C)ccc1O` [capsaicin], in experiment [2] (50 μM capsaicin for 0-180 minutes, FIG. 4B), the “protein expression of HSP70, LAMP1 and Rab5” value is given as “increased in a time-dependent manner”. Besides, in experiment [2] (capsaicin 0, 12.5, 25, 50, 100 and 200 μM for 3 hours, FIG. 4A), the “protein expression of HSP70” value is reported as “increased in a concentration-dependent manner”. In addition, in the experiment with C57BL/6 mice, the number of pups entry is recorded as “increased”.
Consider heparin, for which the “fertility (fertilization rate)” value in the experiment on mouse oocytes was “reduced to be similar to that of the negative control”.
On to `O=P(O)(O)O[C@@H]1[C@H](O)[C@H](O)[C@@H](OP(=O)(O)O)[C@H](OP(=O)(O)O)[C@H]1O` [D-myo-IP3, D-myo-Inositol 1,4,5-triphosphate], for which the sperm motility rate entry in the experiment with mouse sperms was “doubling; also recorded: doubled”.
